Experimental data reported in ChEMBL document CHEMBL5030565, “Stapled Peptides Targeting SARS-CoV-2 Spike Protein HR1 Inhibit the Fusion of Virus to Its Cell Receptor” (J Med Chem, 2021).
Calls of active or inactive are those of the source. The rule behind the calls is not given here.

What was measured:
SARS-CoV-2 [1] = experiment: Antiviral activity against SARS-CoV-2 infected in Vero E6 cells assessed as reduction in viral replication preincubated for 30 mins followed by viral infection measured after 72 hrs by crystal violet staining based plaque assay; assay type: functional, organism-based; details: Severe acute respiratory syndrome coronavirus 2, Vero C1008
SARS-CoV-2 [2] = experiment: Antiviral activity against pseudotyped SARS-CoV-2 infected in Huh7 cells expressing hACE2 preincubated for 1 hr followed by cell infection measured after 2 days by bright-Glo luciferase assay; assay type: functional, organism-based; details: Severe acute respiratory syndrome coronavirus 2, Huh-7
chymotrypsin = chymotrypsin (Homo sapiens, UniProt P17538+P40313+Q6GPI1+Q99895); experiment: Stability of the compound in PBS at pH 7.4 assessed as chymotrypsin (unknown origin)-mediated proteolysis by measuring remaining compound after 12 hrs by HPLC analysis; assay type: ADME, protein assay; details: read-out: Stability
SARS-CoV-2 [3] = experiment: Antiviral activity against pseudotyped SARS-CoV-2 infected in Huh7 cells expressing hACE2 at 10 uM preincubated for 1 hr followed by cell infection measured after 2 days by bright-Glo luciferase assay; assay type: functional, Severe acute respiratory syndrome coronavirus 2, Huh-7; details: time 49 hrs
[4] = molecular target: Spike glycoprotein (Severe acute respiratory syndrome coronavirus 2) (UniProt P0DTC2); experiment: Inhibition of SARS-CoV-2 spike glycoprotein expressed in HEK293T cells transfected with pAAV-CAG-HnCovS-RFP assessed as inhibition of membrane fusion to Huh-7 cells expressing hACE2 at 30 uM measured after 4 hrs by cell-cell fusion based fluorescence assay; assay type: functional
SARS-CoV-2 [5] = experiment: Antiviral activity against pseudotyped SARS-CoV-2 infected in Calu-3 cells at higher concentration; assay type: functional, organism-based; details: Severe acute respiratory syndrome coronavirus 2
SARS-CoV-2 [6] = experiment: Antiviral activity against SARS-CoV-2 infected in Vero E6 cells assessed as reduction in viral replication at 12.5 uM preincubated for 30 mins followed by viral infection measured after 72 hrs by crystal violet staining based plaque assay; assay type: functional, Severe acute respiratory syndrome coronavirus 2; parameters: scale not given: the % may be the effect or the level left

Compound | EC50 (SARS-CoV-2 [1]) | EC50 (SARS-CoV-2 [2]) | remaining at 12 h (chymotrypsin) | Activity (SARS-CoV-2 [3]) | inhibition [4] | Activity (SARS-CoV-2 [5]) | Activity (SARS-CoV-2 [6])
CC[C@H](C)[C@H](NC(=O)CNC(=O)[C@H](CO)NC(=O)[C@@H](NC(=O)[C@H](CC(=O)O)NC(C)=O)[C@@H](C)CC)C(=O)N[C@@H](CC(N)=O)C(=O)N[C@@H](C)C(=O)N[C@@H](CO)C(=O)N[C@H](C(=O)N[C@H](C(=O)N[C@@H](CC(N)=O)C(=O)N[C@H](C(=O)N[C@@H](CCC(N)=O)C(=O)N[C@@H](CCCCN)C(=O)N[C@@H](CCC(=O)O)C(=O)N[C@H](C(=O)N[C@@H](CC(=O)O)C(=O)N[C@@H](CCCNC(=N)N)C(=O)N[C@@H](CC(C)C)C(=O)N[C@@]1(C)CCC/C=C\CCC[C@@](C)(C(=O)N[C@@H](CC(N)=O)C(=O)N[C@@H](CC(C)C)C(=O)N[C@@H](CC(N)=O)C(=O)N[C@@H](CCC(=O)O)C(=O)N[C@@H](CO)C(=O)N[C@@H](CC(C)C)C(=O)N[C@H](C(=O)N[C@@H](CC(=O)O)C(=O)N[C@@H](CC(C)C)C(=O)N[C@@H](CCC(N)=O)C(=O)N[C@@H](CCC(=O)O)C(=O)N[C@@H](CC(C)C)C(N)=O)[C@@H](C)CC)NC(=O)[C@H](C)NC(=O)[C@H](C(C)C)NC(=O)[C@H](CCC(=O)O)NC1=O)[C@@H](C)CC)[C@@H](C)CC)C(C)C)C(C)C | 6.56 µM | 4.05 µM | > 80% | 69.7% | Active | Active | 55%
CC[C@H](C)[C@H](NC(=O)CNC(=O)[C@H](CO)NC(=O)[C@@H](NC(=O)[C@H](CC(=O)O)NC(C)=O)[C@@H](C)CC)C(=O)N[C@@H](CC(N)=O)C(=O)N[C@@H](C)C(=O)N[C@@H](CO)C(=O)N[C@H](C(=O)N[C@H](C(=O)N[C@@H](CC(N)=O)C(=O)N[C@H](C(=O)N[C@@H](CCC(N)=O)C(=O)N[C@@H](CCCCN)C(=O)N[C@@]1(C)CCC/C=C\CCC[C@@](C)(C(=O)N[C@@H](CC(N)=O)C(=O)N[C@@H](CCC(=O)O)C(=O)N[C@H](C(=O)N[C@@H](C)C(=O)N[C@@H](CCCCN)C(=O)N[C@@H](CC(N)=O)C(=O)N[C@@H](CC(C)C)C(=O)N[C@@H](CC(N)=O)C(=O)N[C@@H](CCC(=O)O)C(=O)N[C@@H](CO)C(=O)N[C@@H](CC(C)C)C(=O)N[C@H](C(=O)N[C@@H](CC(=O)O)C(=O)N[C@@H](CC(C)C)C(=O)N[C@@H](CCC(N)=O)C(=O)N[C@@H](CCC(=O)O)C(=O)N[C@@H](CC(C)C)C(N)=O)[C@@H](C)CC)C(C)C)NC(=O)[C@H](CCCNC(=N)N)NC(=O)[C@H](CC(=O)O)NC(=O)[C@H]([C@@H](C)CC)NC1=O)[C@@H](C)CC)C(C)C)C(C)C | – | – | – | 39.8% | – | – | 32%
CC[C@H](C)[C@H](NC(=O)CNC(=O)[C@H](CO)NC(=O)[C@@H](NC(=O)[C@H](CC(=O)O)NC(C)=O)[C@@H](C)CC)C(=O)N[C@@H](CC(N)=O)C(=O)N[C@@H](C)C(=O)N[C@@H](CO)C(=O)N[C@H](C(=O)N[C@H](C(=O)N[C@@H](CC(N)=O)C(=O)N[C@H](C(=O)N[C@@H](CCC(N)=O)C(=O)N[C@@H](CCCCN)C(=O)N[C@@H](CCC(=O)O)C(=O)NC1(C)CCC/C=C\CCCC(C)(C(=O)NC(CCC(=O)O)C(=O)N[C@H](C(=O)N[C@@H](C)C(=O)N[C@@H](CCCCN)C(=O)N[C@@H](CC(N)=O)C(=O)N[C@@H](CC(C)C)C(=O)N[C@@H](CC(N)=O)C(=O)N[C@@H](CCC(=O)O)C(=O)N[C@@H](CO)C(=O)N[C@@H](CC(C)C)C(=O)N[C@H](C(=O)N[C@@H](CC(=O)O)C(=O)N[C@@H](CC(C)C)C(=O)N[C@@H](CCC(N)=O)C(=O)N[C@@H](CCC(=O)O)C(=O)N[C@@H](CC(C)C)C(N)=O)[C@@H](C)CC)C(C)C)NC(=O)[C@H](CC(C)C)NC(=O)[C@H](CCCNC(=N)N)NC(=O)[C@H](CC(=O)O)NC1=O)[C@@H](C)CC)C(C)C)C(C)C (stereo partly specified) | – | 14.6 µM | – | 50.8% | – | – | 25%
CC[C@H](C)[C@H](NC(=O)CNC(=O)[C@H](CO)NC(=O)[C@@H](NC(=O)[C@H](CC(=O)O)NC(C)=O)[C@@H](C)CC)C(=O)N[C@@H](CC(N)=O)C(=O)N[C@@H](C)C(=O)N[C@@H](CO)C(=O)N[C@H](C(=O)N[C@H](C(=O)N[C@@H](CC(N)=O)C(=O)N[C@H](C(=O)N[C@@]1(C)CCC/C=C\CCC[C@@](C)(C(=O)N[C@@H](CCCNC(=N)N)C(=O)N[C@@H](CC(C)C)C(=O)N[C@@H](CC(N)=O)C(=O)N[C@@H](CCC(=O)O)C(=O)N[C@H](C(=O)N[C@@H](C)C(=O)N[C@@H](CCCCN)C(=O)N[C@@H](CC(N)=O)C(=O)N[C@@H](CC(C)C)C(=O)N[C@@H](CC(N)=O)C(=O)N[C@@H](CCC(=O)O)C(=O)N[C@@H](CO)C(=O)N[C@@H](CC(C)C)C(=O)N[C@H](C(=O)N[C@@H](CC(=O)O)C(=O)N[C@@H](CC(C)C)C(=O)N[C@@H](CCC(N)=O)C(=O)N[C@@H](CCC(=O)O)C(=O)N[C@@H](CC(C)C)C(N)=O)[C@@H](C)CC)C(C)C)NC(=O)[C@H]([C@@H](C)CC)NC(=O)[C@H](CCC(=O)O)NC(=O)[C@H](CCCCN)NC1=O)[C@@H](C)CC)C(C)C)C(C)C | – | – | – | 47.6% | – | – | 35%
CC[C@H](C)[C@H](NC(=O)CNC(=O)[C@H](CO)NC(=O)[C@@H](NC(=O)[C@H](CC(=O)O)NC(C)=O)[C@@H](C)CC)C(=O)N[C@@H](CC(N)=O)C(=O)N[C@@H](C)C(=O)N[C@@H](CO)C(=O)N[C@H](C(=O)N[C@H](C(=O)N[C@@H](CC(N)=O)C(=O)N[C@H](C(=O)N[C@@H](CCC(N)=O)C(=O)N[C@@H](CCCCN)C(=O)N[C@@H](CCC(=O)O)C(=O)N[C@H](C(=O)N[C@@]1(C)CCC/C=C\CCC[C@@](C)(C(=O)N[C@H](C(=O)N[C@@H](C)C(=O)N[C@@H](CCCCN)C(=O)N[C@@H](CC(N)=O)C(=O)N[C@@H](CC(C)C)C(=O)N[C@@H](CC(N)=O)C(=O)N[C@@H](CCC(=O)O)C(=O)N[C@@H](CO)C(=O)N[C@@H](CC(C)C)C(=O)N[C@H](C(=O)N[C@@H](CC(=O)O)C(=O)N[C@@H](CC(C)C)C(=O)N[C@@H](CCC(N)=O)C(=O)N[C@@H](CCC(=O)O)C(=O)N[C@@H](CC(C)C)C(N)=O)[C@@H](C)CC)C(C)C)NC(=O)[C@H](CC(N)=O)NC(=O)[C@H](CC(C)C)NC(=O)[C@H](CCCNC(=N)N)NC1=O)[C@@H](C)CC)[C@@H](C)CC)C(C)C)C(C)C | – | – | – | 27.8% | – | – | 35%
